In PMC4102782, “Dual Aurora A and JAK2 kinase blockade effectively suppresses malignant transformation” (Oncotarget, 2014):
Read-outs that look alike come from different tables or passages of the source.

Tests used:
[1] = test system: Aurora A auto-phosphorylation (Thr-288); assay: Western blot, Aurora A auto-phosphorylation in nocodazole-synchronized MDA-MB-468 cells; type: cell-based, human; settings: MDA-MB-468, nocodazole-synchronized, 2 h
Protocol: (§1) Cells were plated in 6 cm dishes at a density of 2 × 10^5 cells/dish. Aurora A activity was determined by measuring autophosphorylation of Aurora A on Thr288 in cells that were synchronized by treatment with nocodazole (100 ng/mL) for 20 h prior to the treatment with Aurora inhibitors, whereas Aurora B activity was determined by measuring phosphorylation of histone H3 on Ser-10 (p-HH3). […] Cells were harvested after 2 h of treatment and processed for SDS−PAGE and Western blotting.
(§2) Cells were harvested from experiments of ectopic expression or knockdown using siRNA or the treatment with the inhibitors, washed, and then lysed using lysis buffer as previously described. The protein concentration of the lysate was measured, and the lysate was mixed with gel electrophoresis loading buffer, boiled for 5 minutes, separated by SDS-PAGE, and transferred to nitrocellulose membranes.

[2] = test system: P-Histone H3 (Ser-10), Aurora B substrate; assay: Western blot, phosphorylation of Histone H3 in MDA-MB-468 cells; type: cell-based, human
Protocol: as §1, §2

[3] = test system: MDA-MB-468 cells; assay: Cell-cycle analysis by flow cytometry, MDA-MB-468; type: cell-based, human; settings: MDA-MB-468, same conditions, data not shown
Protocol: (§3) To evaluate the effect of inhibitors on cell cycle progression, cells were treated with inhibitors at indicated dose or DMSO control and then harvested, fixed with 70% ethanol pretreated with RNase, and stained with propidium iodide (PI) (Sigma) as previously described for flow cytometry analysis. For the detection of apoptosis, cells were cultured for 24 h in medium with inhibitors at indicated dose or DMSO control and harvested for SDS−PAGE and Western blotting. The siRNA or drug treatment-induced apoptosis was detected by Western blot analysis of the cleavage of PARP and caspase-3.

[4] = test system: MDA-MB-468 cells; assay: Anchorage-dependent proliferation, MTT assay, MDA-MB-468; type: cell-based; settings: Homo sapiens, 48 h
Protocol: (§4) Cells were cultured in 96 well plates at a density of 2,000 cells/ well. The cells with siRNA transfection or with the inhibitor treatment were monitored for viability using MTT at indicated time points. At the given time points, MTT reagent was added to the media and allowed to incubate for 3 h at 37° C in a humidified incubator at 5% CO2. The medium was then removed and MTT crystals were dissolved in DMSO (Sigma). Cell viability was quantified by reading the plates at an absorbance of 540 nm on a μQuant microplate reader using KC4 data analysis software (Bio-Tek Instruments). The 540 nm absorbance of vehicle-treated wells was used to define 100% proliferation. Each condition was performed in replicates of six wells.

[5] = test system: HT29 cells; assay: Anchorage-dependent proliferation, MTT assay, HT29; type: cell-based; settings: Homo sapiens, HT-29, 48 h
Protocol: as §4

[6] = test system: MDA-MB-468 cells; assay: Soft agar anchorage-independent growth, MDA-MB-468; type: cell-based, human; settings: MDA-MB-468, Ruxolitinib 30 μM
Protocol: For analysis of anchorage-independent growth, log-phase growing cells were trypsinized, and triplicates of 1.5 × 10^3 cells per well were seeded in regular growth medium containing 0.3% agar (Sigma) and drug added at the indicated concentrations, as previously described. The cells were allowed to incubate at 37° C for 3 weeks and fed once per week with the inhibitor before 1 mg/ml MTT (Sigma) solution was added overnight to facilitate colony counting. Colonies were scored and counted according to size, as previously described.

[7] = test system: HT-29 cells; assay: Soft agar anchorage-independent growth, HT-29; type: cell-based, human; settings: HT-29, Ruxolitinib 20 μM
Protocol: The cells were allowed to incubate at 37° C for 3 weeks and fed once per week with the inhibitor before 1 mg/ml MTT (Sigma) solution was added overnight to facilitate colony counting. Colonies were scored and counted according to size, as previously described.

[8] = test system: MDA-MB-468 cells; assay: Matrigel Transwell invasion, MDA-MB-468; type: cell-based, human; settings: MDA-MB-468, Ruxolitinib 30 μM
Protocol: Cells were transfected with Aurora A and JAK2 for 48 h or with siRNA for 72 h or treated with the compounds for 24 h and then were trypsinized and resuspended in serum-free medium and placed in the upper chamber of the Matrigel-coated (0.8 μg/μL, BD Biosciences, San Diego, CA) Transwell insert (from 2 to 5 × 10^4 cells/well) and with 0.5% DMSO or the compounds at the indicated dose. Medium containing 10%FBS was placed in the lower chamber. […] Invading cells in the membrane were fixed with 100% methanol and stained with fresh prepared 0.2% crystal violet. Noninvasive cells in the upper chamber were removed by wiping the upper side of the membrane with a cotton swab, and cells located on the underside of the filter were observed and photographed under Olympus stereo microscope. The number of invading cells was counted using Image-Pro analysis software.

[9] = test system: HT-29 cells; assay: Matrigel Transwell invasion, HT-29; type: cell-based, human; settings: HT-29, Ruxolitinib 40 μM
Source text: Medium containing 10%FBS was placed in the lower chamber. […] Invading cells in the membrane were fixed with 100% methanol and stained with fresh prepared 0.2% crystal violet. Noninvasive cells in the upper chamber were removed by wiping the upper side of the membrane with a cotton swab, and cells located on the underside of the filter were observed and photographed under Olympus stereo microscope. The number of invading cells was counted using Image-Pro analysis software.

[10] = test system: P-STAT3 (Y705), JAK2 substrate; assay: Western blot, phosphorylation of STAT3 in MDA-MB-468 cells; type: cell-based, human
Protocol: as §1, §2

[11] = test system: P-Histone H3; assay: Western blot, phosphorylation of Histone H3 in HT-29 cells; type: cell-based, human; settings: HT-29, Ruxolitinib 20 μM
Protocol: as §1, §2

[12] = test system: P-STAT3; assay: Western blot, phosphorylation of STAT3 in HT-29 cells; type: cell-based, human; settings: HT-29, Ruxolitinib 20 μM
Protocol: as §1, §2

[13] = test system: PARP cleavage and Caspase 3 activation in MDA-MB-468 cells; assay: Apoptosis by Western blot of PARP cleavage and Caspase 3 activation, MDA-MB-468; type: cell-based, human; settings: MDA-MB-468, single agent, low concentration, e.g. Ruxolitinib 0.4 μM
Protocol: as §3, with “Cells were harvested from experiments of ectopic expression or knockdown using siRNA or the treatment with the inhibitors, washed, and then lysed using lysis buffer as previously described. The protein concentration of the lysate was measured, and the lysate was mixed with gel electrophoresis loading buffer, boiled for 5 minutes, separated by SDS-PAGE, and transferred to nitrocellulose membranes. […] To” for “To”, “SDS-PAGE” for “SDS−PAGE”

For `Cc1cc(Nc2cc(N3CCN(C)CC3)nc(Sc3ccc(NC(=O)C4CC4)cc3)n2)[nH]n1` [VX-680, Tozasertib], the “effect on auto-phosphorylation of Aurora A” value [1] was “highly effective at inhibiting”, the “effect on phosphorylation of Histone H3 (Ser-10)” value [2] was “highly effective at inhibiting” and the G2/M accumulation [3] was “induced a significant G2/M accumulation”.

`N#CC[C@H](C1CCCC1)n1cc(-c2ncnc3[nH]ccc23)cn1` [Ruxolitinib] showed an IC50 ([4]; MDA-MB-468, MTT) of 26 µM, an inhibition at 35 µM ([4]; MDA-MB-468, Ruxolitinib 35 μM) of 51.2% and an IC50 ([5]; HT29, MTT) of 44.7 µM. The inhibition at 20 µM ([5]; HT29, Ruxolitinib 20 μM) was 14.3%, the inhibition at 30 µM ([6]; Homo sapiens) was 23.7% and the soft agar colonies ([6]; vehicle 131) was 100 colonies. For the same compound, the soft agar colonies ([7]; vehicle 129) was 72 colonies, the inhibition at 20 µM ([7]; Homo sapiens, read-out: inhibition of soft agar colonies) was 44.2% and the inhibition at 30 µM ([8]; Homo sapiens) was 48.6%. It also gave an invaded cells ([8]; vehicle 344) of 177 cells, an invaded cells ([9]; vehicle 1066) of 305 cells and an inhibition at 40 µM ([9]; Homo sapiens) of 71.4%. For the same compound, the “effect on auto-phosphorylation of Aurora A” value [1] was “not that of Histone H3 or the auto-phosphorylation of Aurora A”, the “effect on P-Histone H3” value ([2]; MDA-MB-468, Ruxolitinib 30 μM) was “not P-Histone H3” and the “effect on phosphorylation of Histone H3 (Ser-10)” value ([2]; MDA-MB-468, increasing concentrations, 2 h) was “not that of Histone H3”. The “effect on P-STAT3” value [10] was “inhibited P-STAT3”, the “effect on phosphorylation of STAT3 (Y705)” value [10] was “able to inhibit the phosphorylation of STAT3” and the “effect on P-Histone H3” value [11] was “not P-Histone H3”. For the same compound, the “effect on P-STAT3” value [12] was “inhibited P-STAT3” and the PARP cleavage [13] was “neither Alisertib nor Ruxolitinib induced PARP cleavage”.
